According to patent publication US11878965B2, “Inhibitors of peptidylarginine deiminases” (Gilead Sciences, Inc., priority 2020, dated 2024):

Molecular target: human PAD4 (Homo sapiens (Human), UniProt Q9UM07)
Assay: In Vitro PAD4 BAEE Biochemical Assay
Details: human PAD4, BAEE substrate; 5 nM PAD4, 2 mM calcium chloride, 3 mM BAEE; geometric mean of multiple experiments
Description: The PCR product was ligated into linearized pET-SUMO vector (Invitrogen, Carlsbad, CA), which is part of the Champion™ pET SUMO Protein Expression System. After sequence verification for the correct orientation, the pET-SUMO-hPAD4 expression plasmid was transformed into BL21(DE3) cells.
E. Coli BL21(DE3) cells were inoculated in LB medium with kanamycin at 37° C. until A600 nm reached about 0.5. Protein expression was induced by addition of 0.5 mM IPTG (final) and continued overnight at 16° C. at 220 rpm.
Cells were harvested by centrifugation at 5000 rpm for 10 minutes at 4° C. The pellet was resuspended in 300 ml lysis buffer (20 mM Tris-HCl, pH 8.0, 1 mM EDTA, 500 mM NaCl, 1 mM (tris(2-carboxyethyl)phosphine) (TCEP), 10% glycerol, and 1% Triton X100 and EDTA free protease inhibitor) and lysed by 3× passage through a microfluidizer (Microfluidics, Newton, MA) at 18,000 psi. The cell lysate was clarified by centrifugation at 30,000 rpm for 60 minutes at 4° C. The supernatant was applied to a 5 ml Ni-HP (GE HealthCare Cat #17524701) column preequilibrated in Ni-A buffer (20 mM Tris-HCl, pH 8.0, 20 mM Imidazole, 1 mM TCEP, 10% glycerol, and 400 mM NaCl). Bound protein was eluted with a 0-100% linear gradient of 100 mL Ni-B buffer (Ni A buffer+0.5 M Imidazole).
The His-Sumo tag was cleaved using sumo protease (Thermo Fisher Cat #: 12588018) while dialyzing in buffer (20 mM Tris-HCl, pH 8.0, 1 mM EDTA, 500 mM NaCl, 1 mM TCEP, 10% glycerol). The protein was then reloaded onto a Ni-HP column for a reverse purification step and recovered in flow through fraction. The protein with His-Sumo tag removed was then polished using a 16/60 Superdex-200 gel filtration column with gel filtration buffer (20 mM Tris pH 8.0, NaCl 400 mM and 1 mM TCEP). The fractions containing the protein were pulled and frozen at −80° C.
In Vitro PAD4 BAEE Biochemical Assay
The enzymatic activity of human PAD4 was monitored in a biochemical assay in the presence or absence of compounds using the small peptidyl arginine mimic BAEE (Nα-Benzoyl-L-arginine ethyl ester hydrochloride) as substrate. PAD4 activity led to deimination of BAEE and release of ammonia. Levels of ammonia were monitored by using an amine coupling reaction and were indicative of PAD4 enzymatic activity.
One hundred nanoliters of test compounds dissolved in DMSO at various concentrations were dispensed into a 384-well black OptiPlate using a Labcyte Echo instrument. Ten microliters of a solution of recombinant PAD4 and calcium chloride diluted in PAD4 assay buffer (50 mM MOPS [3-(N-morpholino) propanesulfonic acid], pH 7.6; 50 mM sodium chloride; 0.05% Tween-20; 2 mM dithiothreitol) was added to the compound-containing plate and was incubated for 30 minutes at 25° C. Ten microliters of a solution of BAEE (Sigma-Aldrich #B4500) diluted in PAD4 assay buffer was then added to start the reaction. Final concentrations were 5 nM PAD4, 2 mM calcium chloride, and 3 mM BAEE. The reaction mixture was incubated at 25° C. for 2 hours and was stopped with the addition of 10 microliters of a solution of 75 mM EDTA (Ethylenediaminetetraacetic acid) in PAD4 assay buffer. Thirty microliters of detection solution (5 mM o-phthalaldehyde, 50 mM MOPS [3-(N-morpholino) propanesulfonic acid], pH 7.6; 50 mM sodium chloride; 0.05% Tween-20; 5 mM dithiothreitol) was then added and the reaction was incubated for 1 hour at 25° C. The level of fluorescent thiol-substituted isoindole resulting from the reaction of ammonia, o-phthalaldehyde, and dithiothreitol was measured on an Envision plate reader (PerkinElmer) with 405 nm excitation and 535 nm emission.

Chain of human PAD4 (Q9UM07 2-663): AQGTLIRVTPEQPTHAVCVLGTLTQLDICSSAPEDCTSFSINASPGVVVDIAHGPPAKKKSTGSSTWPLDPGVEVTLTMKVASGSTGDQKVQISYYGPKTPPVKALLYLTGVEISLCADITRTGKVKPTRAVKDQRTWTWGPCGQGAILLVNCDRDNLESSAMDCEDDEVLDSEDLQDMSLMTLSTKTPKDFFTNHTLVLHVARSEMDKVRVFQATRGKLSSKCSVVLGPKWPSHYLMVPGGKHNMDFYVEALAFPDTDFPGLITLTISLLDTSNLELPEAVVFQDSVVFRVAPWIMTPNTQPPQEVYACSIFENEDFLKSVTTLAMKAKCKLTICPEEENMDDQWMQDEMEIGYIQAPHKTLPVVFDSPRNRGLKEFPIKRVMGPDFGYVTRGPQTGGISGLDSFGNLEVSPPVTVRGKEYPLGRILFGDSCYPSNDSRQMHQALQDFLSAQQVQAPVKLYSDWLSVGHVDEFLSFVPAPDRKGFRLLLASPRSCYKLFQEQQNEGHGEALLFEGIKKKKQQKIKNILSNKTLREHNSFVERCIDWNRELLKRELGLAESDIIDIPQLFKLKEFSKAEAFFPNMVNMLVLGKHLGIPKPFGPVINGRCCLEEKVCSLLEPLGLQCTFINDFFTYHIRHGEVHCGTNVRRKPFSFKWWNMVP

Compound | IC50
2-(1-(cyclopropylmethyl)- 6-((N-(difluoromethyl) methyl)sulfonamido)- 1H-pyrrolo[2,3-b]pyridin-2- yl)-6-fluoro-N-((3S,4S)- 4-fluoropiperidin- 3-yl)-1-methyl-1H- benzo[d]imidazole-5- carboxamide [Example 93] | 146 nM
COc1cc(C(=O)N[C@@H]2CNC[C@H]2NC(=O)/C=C/CN(C)C)cc2nc(-c3cc4ccc(N(C(F)F)S(C)(=O)=O)nc4n3CC3CC3)n(C)c12 (stereo in doubt) [Example 71, 2-[1-(cyclopropylmethyl)-6-[difluoromethyl(methylsulfonyl)amino]pyrrolo[2,3-b]pyridin-2-yl]-N-[(3R,4R)-4-[[(E)-4-(dimethylamino)but-2-enoyl]amino]pyrrolidin-3-yl]-7-methoxy-1-methyl-benzimidazole-5-carboxamide] | 490 nM
COc1cc(C(=O)N2CCC[C@@H](N)C2)cc2nc(-c3cc4ccc(NS(C)(=O)=O)cc4n3CC3CC3)n(C)c12 [Example 1, (R)-N-(2-(5-(3-aminopiperidine-1-carbonyl)-7-methoxy-1-methyl-1H-benzo[d]imidazol-2-yl)-1-(cyclopropylmethyl)-1H-indol-6-yl)methanesulfonamide] | 1580 nM
COc1cc(C(=O)N2CCC[C@@H](N)C2)cc2nc(-c3cc4ccc(N(C)S(C)(=O)=O)cc4n3CC3CC3)n(C)c12 [Example 2, (R)-N-(2-(5-(3-aminopiperidine-1-carbonyl)-7-methoxy-1-methyl-1H-benzo[d]imidazol-2-yl)-1-(cyclopropylmethyl)-1H-indol-6-yl)-N-methylmethanesulfonamide] | 210 nM
COc1cc(C(=O)N2CCC[C@@H](N)C2)cc2nc(-c3cc4ccc(N(C)S(C)(=O)=O)nc4n3CC3CC3)n(C)c12 [Example 3, (R)-N-(2-(5-(3-aminopiperidine-1-carbonyl)-7-methoxy-1-methyl-1H-benzo[d]imidazol-2-yl)-1-(cyclopropylmethyl)-1H-pyrrolo [2,3-b]pyridin-6-yl)-N-methylmethanesulfonamide] | 122 nM
COc1cc(C(=O)N2CCC[C@@H](N)[C@H]2C)cc2nc(-c3cc4ccc(N(C)S(C)(=O)=O)nc4n3CC3CC3)n(C)c12 [Example 4, N-(2-(5-((2R,3R)-3-amino-2-methylpiperidine-1-carbonyl)-7-methoxy-1-methyl-1H-benzo[d]imimidazol-2-yl)-1-(cyclopropylmethyl)-1H-pyrrolo [2,3-b]pyridin-6-yl)-N-methylmethanesulfonamide] | 149 nM
CCN(c1ccc2cc(-c3nc4cc(C(=O)N5CCC[C@@H](N)C5)cc(OC)c4n3C)n(CC3CC3)c2n1)S(C)(=O)=O [Example 5, (R)-N-(2-(5-(3-aminopiperidine-1-carbonyl)-7-methoxy-1-methyl-1H-benzo[d]imidazol-2-yl)-1-(cyclopropylmethyl)-1H-pyrrolo [2,3-b]pyridin-6-yl)-N-ethylmethanesulfonamide] | 78.6 nM
COc1cc(C(=O)N2CCC[C@@H](N)C2)cc2nc(-c3cc4ccc(N(C(C)C)S(C)(=O)=O)nc4n3CC3CC3)n(C)c12 [Example 6, (R)-N-(2-(5-(3-aminopiperidine-1-carbonyl)-7-methoxy-1-methyl-1H-benzo[d]imidazol-2-yl)-1-(cyclopropylmethyl)-1H-pyrrolo [2,3-b]pyridin-6-yl)-N-isopropylmethanesulfonamide] | 59.5 nM
CCS(=O)(=O)N(C)c1ccc2cc(-c3nc4cc(C(=O)N5CCC[C@@H](N)C5)cc(OC)c4n3C)n(CC3CC3)c2n1 [Example 7, (R)-N-(2-(5-(3-aminopiperidine-1-carbonyl)-7-methoxy-1-methyl-1H-benzo[d]imidazol-2-yl)-1-(cyclopropylmethyl)-1H-pyrrolo [2,3-b]pyridin-6-yl)-N-methylethanesulfonamide] | 164 nM
COc1cc(C(=O)N2CCC[C@@H](N)C2)cc2nc(-c3cc4ccc(N(C)S(=O)(=O)C5CC5)nc4n3CC3CC3)n(C)c12 [Example 8, (R)-N-(2-(5-(3-aminopiperidine-1-carbonyl)-7-methoxy-1-methyl-1H-benzo[d]imidazol-2-yl)-1-(cyclopropylmethyl)-1H-pyrrolo [2,3-b]pyridin-6-yl)-N-methylcyclopropanesulfonamide] | 190 nM
COc1cc(C(=O)N2CCC[C@@H](N)C2)cc2nc(-c3cc4ccc(N(C)S(=O)(=O)C(C)C)nc4n3CC3CC3)n(C)c12 [Example 9, (R)-N-(2-(5-(3-aminopiperidine-1-carbonyl)-7-methoxy-1-methyl-1H-benzo[d]imidazol-2-yl)-1-(cyclopropylmethyl)-1H-pyrrolo [2,3-b]pyridin-6-yl)-N-methylpropane-2-sulfonamide] | 238 nM
CCCN(c1ccc2cc(-c3nc4cc(C(=O)N5CCC[C@@H](N)C5)cc(OC)c4n3C)n(CC3CC3)c2n1)S(C)(=O)=O [Example 10, (R)-N-(2-(5-(3-aminopiperidine-1-carbonyl)-7-methoxy-1-methyl-1H-benzo[d]imidazol-2-yl)-1-(cyclopropylmethyl)-1H-pyrrolo [2,3-b]pyridin-6-yl)-N-propylmethanesulfonamide] | 330 nM
COc1cc(C(=O)N2CCC[C@@H](N)C2)cc2nc(-c3cc4ccc(N(Cc5ccccc5)S(C)(=O)=O)nc4n3CC3CC3)n(C)c12 [Example 11, (R)-N-(2-(5-(3-aminopiperidine-1-carbonyl)-7-methoxy-1-methyl-1H-benzo[d]imidazol-2-yl)-1-(cyclopropylmethyl)-1H-pyrrolo [2,3-b]pyridin-6-yl)-N-benzylmethanesulfonamide] | 192 nM
COc1cc(C(=O)N2CCC[C@@H](N)C2)cc2nc(-c3cc4ccc(N(C)S(=O)(=O)c5ccccc5)nc4n3CC3CC3)n(C)c12 [Example 12, (R)-N-(2-(5-(3-aminopiperidine-1-carbonyl)-7-methoxy-1-methyl-1H-benzo[d]imidazol-2-yl)-1-(cyclopropylmethyl)-1H-pyrrolo [2,3-b]pyridin-6-yl)-N-methylbenzenesulfonamide] | 225 nM
COc1cc(C(=O)N2CCC[C@@H](N)C2)cc2nc(-c3cc4ccc(N(c5ccccc5)S(C)(=O)=O)nc4n3CC3CC3)n(C)c12 [Example 13, (R)-N-(2-(5-(3-aminopiperidine-1-carbonyl)-7-methoxy-1-methyl-1H-benzo[d]imidazol-2-yl)-1-(cyclopropylmethyl)-1H-pyrrolo [2,3-b]pyridin-6-yl)-N-phenylmethanesulfonamide] | 3570 nM
CCCCS(=O)(=O)N(C)c1ccc2cc(-c3nc4cc(C(=O)N5CCC[C@@H](N)C5)cc(OC)c4n3C)n(CC3CC3)c2n1 [Example 14, (R)-N-(2-(5-(3-aminopiperidine-1-carbonyl)-7-methoxy-1-methyl-1H-benzo[d]imidazol-2-yl)-1-(cyclopropylmethyl)-1H-pyrrolo [2,3-b]pyridin-6-yl)-N-methylbutane-1-sulfonamide] | 249 nM
COc1cc(C(=O)N2CCC[C@@H](N)C2)cc2nc(-c3cc4ccc(N(C5CCC5)S(C)(=O)=O)nc4n3CC3CC3)n(C)c12 [Example 15, (R)-N-(2-(5-(3-aminopiperidine-1-carbonyl)-7-methoxy-1-methyl-1H-benzo[d]imidazol-2-yl)-1-(cyclopropylmethyl)-1H-pyrrolo [2,3-b]pyridin-6-yl)-N-cyclobutylmethanesulfonamide] | 136 nM
